Assay type in all cases: cell-based
Experiment [1] has as its target TRPML1 (Homo sapiens, UniProt Q9GZU1). The experiment can be described thus: Fluorescent TRPML1 assay (Fluo4-AM calcium fluorescence in doxycycline-induced HEK-293 Trex cells). The method, boiled down: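 First, expression of surface-targeted mutant human TRPML1 is induced in HEK-293 Trex cells with 0.5 ug/mL doxycycline the day before. Next, cells take up 1 micromolar Fluo4-AM in Ringer's with 0.1% Pluronic. Finally, they are added to compounds (6 nanomolar–20 micromolar final) in 10 mM calcium Ringer's and fluorescence is read.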

Experiment [2] has as its target T1, TRPML2 (Homo sapiens, UniProt Q8IZK6).
T1 construct: expressed in transfected cells
T1 sequence (Q8IZK6 1-566): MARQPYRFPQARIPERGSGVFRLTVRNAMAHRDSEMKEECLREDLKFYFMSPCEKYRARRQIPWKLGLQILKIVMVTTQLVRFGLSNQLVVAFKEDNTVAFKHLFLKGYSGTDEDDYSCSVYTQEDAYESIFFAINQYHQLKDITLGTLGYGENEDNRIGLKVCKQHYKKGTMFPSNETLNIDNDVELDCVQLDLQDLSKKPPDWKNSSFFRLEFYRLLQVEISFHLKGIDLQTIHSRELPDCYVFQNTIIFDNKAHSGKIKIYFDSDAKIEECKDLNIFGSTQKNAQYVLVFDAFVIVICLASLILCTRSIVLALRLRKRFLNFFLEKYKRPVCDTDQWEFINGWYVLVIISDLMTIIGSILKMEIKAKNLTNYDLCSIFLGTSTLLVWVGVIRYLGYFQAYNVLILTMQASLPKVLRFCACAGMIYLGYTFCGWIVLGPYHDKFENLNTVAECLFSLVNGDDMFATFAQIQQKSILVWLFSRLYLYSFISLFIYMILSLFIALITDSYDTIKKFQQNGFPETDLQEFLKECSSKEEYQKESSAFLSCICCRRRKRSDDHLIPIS
The experiment can be described thus: Fluorescent TRPML2 assay (performed as for TRPML1, substituting the TRPML2 subtype). The method, boiled down:
(§1)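 Doxycycline-induced (0.5 ug/mL) HEK-293 Trex cells stably expressing surface-directed mutant channel were loaded with 1 micromolar Fluo4-AM, resuspended in Ringer's with 10 mM calcium and added to compound plates. Fluorescence (ex 480, em 540 nm) gave percent activity versus on-plate controls; EC50 by non-linear regression.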

The target of experiment [3] is T2, TRPML3 (Homo sapiens, UniProt Q8TDD5).
T2 construct: expressed in transfected cells
T2 sequence (Q8TDD5 1-553): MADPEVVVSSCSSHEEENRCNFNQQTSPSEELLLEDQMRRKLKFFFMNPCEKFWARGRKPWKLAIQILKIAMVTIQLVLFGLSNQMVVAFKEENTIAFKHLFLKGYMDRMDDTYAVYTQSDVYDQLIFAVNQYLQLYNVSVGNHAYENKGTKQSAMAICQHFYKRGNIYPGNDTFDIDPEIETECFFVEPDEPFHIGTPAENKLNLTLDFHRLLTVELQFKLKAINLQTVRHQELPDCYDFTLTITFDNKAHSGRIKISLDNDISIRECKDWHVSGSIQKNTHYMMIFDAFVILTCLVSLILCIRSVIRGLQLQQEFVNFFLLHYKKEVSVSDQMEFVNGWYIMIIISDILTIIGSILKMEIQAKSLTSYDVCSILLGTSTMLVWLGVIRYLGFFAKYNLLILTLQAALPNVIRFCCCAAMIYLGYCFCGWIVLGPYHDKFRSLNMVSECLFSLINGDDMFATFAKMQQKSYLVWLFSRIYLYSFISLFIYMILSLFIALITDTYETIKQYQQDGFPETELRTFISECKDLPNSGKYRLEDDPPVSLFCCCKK
The experiment can be described thus: Fluorescent TRPML3 assay (performed as for TRPML1, substituting the TRPML3 subtype). The method, boiled down:
as §1

Each structure is given as a SMILES string. Where two headings read alike, the source gives them in different places.

As a reminder, the EC50 is the midpoint of the concentration-response curve.

Sequence of TRPML1 (Q9GZU1 whole entry L15A/L16A/L577A/L578A, form open): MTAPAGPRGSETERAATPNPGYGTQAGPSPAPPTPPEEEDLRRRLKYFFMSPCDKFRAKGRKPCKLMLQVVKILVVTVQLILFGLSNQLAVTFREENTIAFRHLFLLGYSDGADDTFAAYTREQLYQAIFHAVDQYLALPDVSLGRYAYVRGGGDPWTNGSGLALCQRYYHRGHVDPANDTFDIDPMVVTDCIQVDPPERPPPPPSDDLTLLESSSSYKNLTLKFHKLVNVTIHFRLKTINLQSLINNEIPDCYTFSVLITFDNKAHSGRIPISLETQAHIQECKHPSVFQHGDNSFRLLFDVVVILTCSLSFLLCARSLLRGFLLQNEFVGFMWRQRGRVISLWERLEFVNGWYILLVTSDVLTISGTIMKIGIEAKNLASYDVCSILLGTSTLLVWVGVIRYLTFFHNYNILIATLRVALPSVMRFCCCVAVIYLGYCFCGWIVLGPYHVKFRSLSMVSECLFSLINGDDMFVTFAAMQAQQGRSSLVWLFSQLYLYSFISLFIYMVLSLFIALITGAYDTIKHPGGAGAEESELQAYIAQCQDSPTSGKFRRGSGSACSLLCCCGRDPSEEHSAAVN

In the case of `C[C@H]1CN(c2ncnc3c2c(C(F)(F)F)cn3-c2cc(C#N)ccn2)[C@@H](C)CN1C(=O)OC(C)(C)C` [Compound 502, tert-butyl (25,5S)-4-(7-(4-cyanopyridin-2-yl)-5-(trifluoromethyl)-7H-pyrrolo[2,3-d]pyrimidin-4-yl)-2,5-dimethylpiperazine-1-carboxylate], the results for the EC50 in experiment [1], in experiment [2] and in experiment [3] were less than 100 nM, 100 to 500 nM and less than 100 nM, respectively.
For `CCN(CC)c1cn(-c2cc(C#N)ccn2)c2ncnc(N3CCN(C(=O)OC(C)(C)C(F)(F)F)C[C@@H]3C)c12` [Compound 422, 1,1,1-trifluoro-2-methylpropan-2-yl (S)-4-(7-(4-cyanopyridin-2-yl)-5-(diethylamino)-7H-pyrrolo[2,3-d]pyrimidin-4-yl)-3-methylpiperazine-1-carboxylate], the EC50 in experiment [1] (fluorescent calcium assay) is less than 100 nM; in experiment [2] (fluorescent calcium assay) it was 100 to 500 nM; in experiment [3] (fluorescent calcium assay) it was less than 100 nM.
For the compound `Cc1cn(-c2ccccc2)c2ncnc(N3C[C@@H](C)N(C(=O)OC(C)(C)C)C[C@@H]3C)c12` [Compound 668, tert-butyl (2R,5S)-2,5-dimethyl-4-(5-methyl-7-phenyl-7H-pyrrolo[2,3-d]pyrimidin-4-yl)piperazine-1-carboxylate], the EC50 in experiment [1] lay within 100 to 500 nM; in experiment [2], 500 to 2000 nM; in experiment [3] it was 100 to 500 nM.
`C[C@H]1CN(C(=O)OC(C)(C)C)CCN1c1nccc2c1c(C1CCC1)cn2-c1cccc(F)c1` [Compound 706, tert-butyl (S)-4-(3-cyclobutyl-1-(3-fluorophenyl)-1H-pyrrolo[3,2-c]pyridin-4-yl)-3-methylpiperazine-1-carboxylate]: the results for the EC50 in experiment [1], in experiment [2] and in experiment [3] were 100 to 500 nM, 500 to 2000 nM and 100 to 500 nM, respectively.
`C[C@H]1CN(C(=O)OC(C)(C)C(F)(F)F)CCN1c1ncnc2c1c(-c1cnn(C)c1)cn2-c1cc(C#N)ccn1` [Compound 330, 1,1,1-trifluoro-2-methylpropan-2-yl (S)-4-(7-(4-cyanopyridin-2-yl)-5-(1-methyl-1H-pyrazol-4-yl)-7H-pyrrolo[2,3-d]pyrimidin-4-yl)-3-methylpiperazine-1-carboxylate]: the EC50 was less than 100 nM in experiment [1] (fluorescent calcium assay), 100 to 500 nM in experiment [2] (fluorescent calcium assay) and less than 100 nM in experiment [3] (fluorescent calcium assay).
Regarding `C[C@H]1CN(C(=O)OC(C)(C)C(F)(F)F)CCN1c1ncnc2c1c(-c1cncnc1)cn2-c1cc(C#N)ccn1` [Compound 335], the EC50 is less than 100 nM in experiment [1] (fluorescent calcium assay), 500 to 2000 nM in experiment [2] (fluorescent calcium assay) and less than 100 nM in experiment [3] (fluorescent calcium assay).
Consider `C[C@@H]1CN(c2ncnc3c2c(C(F)(F)F)cn3-c2cc(C#N)ncn2)[C@@H](C)CN1C(=O)OC(C)(C)C` [Compound 509, tert-butyl (2R,5S)-4-(7-(6-cyanopyrimidin-4-yl)-5-(trifluoromethyl)-7H-pyrrolo[2,3-d]pyrimidin-4-yl)-2,5-dimethylpiperazine-1-carboxylate], for which the EC50 in experiment [1], in experiment [2] and in experiment [3] was less than 100 nM each time.
Take `Cc1nccnc1-c1cn(-c2ccc(Cl)cc2)c2ncnc(N3C[C@@H](C)N(C(=O)OC(C)(C)C)C[C@@H]3C)c12` [Compound 184, tert-butyl (2R,5S)-4-(7-(4-chlorophenyl)-5-(3-methylpyrazin-2-yl)-7H-pyrrolo[2,3-d]pyrimidin-4-yl)-2,5-dimethylpiperazine-1-carboxylate]: the concentration for a half-maximal effect (EC50) was in the range of 100 to 500 nM in experiment [1] (fluorescent calcium assay), 500 to 2000 nM in experiment [2] (fluorescent calcium assay) and 100 to 500 nM in experiment [3] (fluorescent calcium assay).
Consider `CC(C)(C)OC(=O)N1CCN(c2ncnc3c2c(C2CC2)cn3-c2cc(F)cc(F)c2)C[C@@H]1CF` (single isomer, unassigned) [Compound 270], for which the values for the concentration giving a half-maximal response (EC50) in experiment [1] (fluorescent calcium assay), in experiment [2] (fluorescent calcium assay) and in experiment [3] (fluorescent calcium assay) were 500 to 2000 nM, more than 2000 nM and 100 to 500 nM, respectively.
As for `C[C@@H]1CN(c2ncnc3c2c(CC(F)(F)F)cn3-c2cc(C#N)ncn2)[C@@H](C)CN1C(=O)OC(C)(C)C` [Compound 618, tert-butyl (2R,5S)-4-(7-(6-cyanopyrimidin-4-yl)-5-(2,2,2-trifluoroethyl)-7H-pyrrolo[2,3-d]pyrimidin-4-yl)-2,5-dimethylpiperazine-1-carboxylate], the values for the EC50 in experiment [1], in experiment [2] and in experiment [3] were less than 100 nM, 100 to 500 nM and less than 100 nM, respectively.
For the compound `Cc1cn(-c2cc(C(F)(F)F)ccn2)c2ncnc(N3CCN(C(=O)OC(C)(C)C)C[C@@H]3C)c12` [Compound 682, tert-butyl (S)-3-methyl-4-(5-methyl-7-(4-(trifluoromethyl)pyridin-2-yl)-7H-pyrrolo[2,3-d]pyrimidin-4-yl)piperazine-1-carboxylate], the EC50 in experiment [1], in experiment [2] and in experiment [3] was less than 100 nM in each case.
Consider `Cc1nccnc1-c1cn(-c2cccc(Cl)c2)c2ncnc(N3CCN(C(=O)OC(C)(C)C)CC3C)c12` (stereo not drawn) [Compound 161, tert-butyl 4-(7-(3-chlorophenyl)-5-(3-methylpyrazin-2-yl)-7H-pyrrolo[2,3-d]pyrimidin-4-yl)-3-methylpiperazine-1-carboxylate], for which the EC50 in experiment [1] (fluorescent calcium assay) was 100 to 500 nM; in experiment [2] (fluorescent calcium assay), 500 to 2000 nM; in experiment [3] (fluorescent calcium assay) it was 100 to 500 nM.
As to `Cc1cncc(-n2cc(-c3cccnc3)c3c(N4C[C@@H](C)N(C(=O)OC(C)(C)C)C[C@@H]4C)ncnc32)c1` [Compound 178, tert-butyl (2R,5S)-2,5-dimethyl-4-(7-(5-methylpyridin-3-yl)-5-(pyridin-3-yl)-7H-pyrrolo[2,3-d]pyrimidin-4-yl)piperazine-1-carboxylate], the EC50 is 100 to 500 nM in experiment [1] (fluorescent calcium assay), more than 2000 nM in experiment [2] (fluorescent calcium assay) and 500 to 2000 nM in experiment [3] (fluorescent calcium assay).
On to `Cc1cn(-c2cc(F)cc(F)c2)c2ncnc(N3C[C@@H](C)N(C(=O)OC(C)(C)C)C[C@@H]3C)c12` [Compound 670, tert-butyl (2R,5S)-4-(7-(3,5-difluorophenyl)-5-methyl-7H-pyrrolo[2,3-d]pyrimidin-4-yl)-2,5-dimethylpiperazine-1-carboxylate], for which the figures for the EC50 in experiment [1], in experiment [2] and in experiment [3] were 100 to 500 nM, 500 to 2000 nM and less than 100 nM, respectively.
For the compound `C[C@H]1CN(C(=O)OC(C)(C)C)CCN1c1ncnc2c1c(-c1ccccn1)cn2-c1ccc(F)c(Cl)c1` [Compound 154, tert-butyl (S)-4-(7-(3-chloro-4-fluorophenyl)-5-(pyridin-2-yl)-7H-pyrrolo[2,3-d]pyrimidin-4-yl)-3-methylpiperazine-1-carboxylate], the EC50 in experiment [1] (fluorescent calcium assay), in experiment [2] (fluorescent calcium assay) and in experiment [3] (fluorescent calcium assay) was less than 100 nM throughout.
As to `C[C@@H]1CN(C(=O)OC(C)(C)C)CCN1c1ncnc2c1c(N1CCCC1)cn2-c1cc(F)cc(F)c1` [Compound 255, tert-butyl (R)-4-(7-(3,5-difluorophenyl)-5-(pyrrolidin-1-yl)-7H-pyrrolo[2,3-d]pyrimidin-4-yl)-3-methylpiperazine-1-carboxylate], the EC50 in experiment [1] (fluorescent calcium assay) was in the range of 100 to 500 nM; in experiment [2] (fluorescent calcium assay) it was 500 to 2000 nM; in experiment [3] (fluorescent calcium assay), 100 to 500 nM.
As for `Cc1cn(-c2cc(C(F)(F)F)ccn2)c2ncnc(N3C[C@@H](C)N(C(=O)OC(C)(C)C)C[C@@H]3C)c12` [Compound 537, tert-butyl (2R,5S)-2,5-dimethyl-4-(5-methyl-7-(4-(trifluoromethyl)pyridin-2-yl)-7H-pyrrolo[2,3-d]pyrimidin-4-yl)piperazine-1-carboxylate], the EC50 in experiment [1], in experiment [2] and in experiment [3] was less than 100 nM in each case.
In the case of `Cc1cn(-c2cccc(F)c2)c2ncnc(N3C[C@@H](C)N(C(=O)OC(C)(C)C)C[C@@H]3C)c12` [Compound 666, tert-butyl (2R,5S)-4-(7-(3-fluorophenyl)-5-methyl-7H-pyrrolo[2,3-d]pyrimidin-4-yl)-2,5-dimethylpiperazine-1-carboxylate], the EC50 in experiment [1] is less than 100 nM; in experiment [2] it was 100 to 500 nM; in experiment [3], 100 to 500 nM.

These data come from patent publication US20250136606A1, “MODULATORS OF TRPML, THEIR COMPOSITIONS AND METHODS OF USE” (Caraway Therapeutics, Inc., priority 2021, published 2025).
